Data from US7214668B2, “Phosphonic acid based prodrugs of PMEA and its analogues” (Metabasis Therapeutics, Inc., priority 2002, dated 2007).
Where “and” joins values, the source holds several entries; their conditions need not be identical. Equal values may be shown once. Read-outs that look alike come from different tables or passages of the source.

Assays:
[1] = PMEApp accumulation in liver organ following oral administration to normal fasted rats; type: in vivo, rat; conditions: 30 mg/kg PMEA equivalents p.o.
Experimental: PMEA prodrugs were tested in vivo to identify prodrugs with suitable oral bioavailability and favorable intrahepatic activation rates.
Following oral administration of 30-mg/kg prodrug (PMEA equivalents) to normal, fasted rats, liver organ samples were freeze-clamped at 8 hr. […] The retention time of PMEApp was 18.6 minutes.

[2] = Plasma and urine PMEA following oral Compound 4 and bis POM PMEA in rats; type: in vivo, rat; conditions: 30 mg/kg PMEA equivalents p.o.
Experimental: PMEA levels (0–12 h) were quantified in plasma by fluorescence HPLC following chloroacetaldehyde derivatization. PMEA levels in urine were quantified 48 hours after treatment.
Plasma drug levels: PMEA was determined in plasma by a modification of the procedure described in the literature (Shaw J P, Louie M S, Krishnamurthy V V, Arimilli M N, Jones R J, Bidgood A M, Lee W A, & Cundy K C, Drug Metabolism and Disposition, 25:362–366 (1997)). Plasma (100 μL) samples were extracted with 2 volumes of 0.1% TFA in acetonitrile. Following centrifugation to remove the precipitate, the supernatant was evaporated to dryness. The dried plasma was reconstituted with 200 μL of the derivatization cocktail consisting of 0.34% chloroacetaldehyde in 100 mM sodium acetate pH 4.5 and incubated at 95° C. for 40 min. The samples were evaporated to dryness and reconstituted with mobile phase for analysis by HPLC. The derivatized PMEA was analyzed by an HPLC system (Hewlett Packard 1090) consisting of a Beckman Ultrasphere ODS 4.6×150 mm (5 μm) column developed with a 20-min gradient of 0–30% acetonitrile in 20 mM potassium phosphate pH 6.2. Fluorescence was monitored at an excitation and emission wavelength of 240 and 420 nm, respectively. The column temperature was 40° C. and the flow rate was 1.5 mL/min. The derivatized PMEA was detected and quantified by comparison to an authentic standard prepared in plasma and eluted at approximately 6 minutes. The limit of quantitation of PMEA, was 0.25 μg/mL.
Urinary excretion studies: The percent excretion of PMEA in urine was assessed by a modification of a previously described procedure (Russell J W, Marrero D, Whiterock V J, & Klunk L J, J Chromatog, 572:321–326 (1991)). Aliquots (0.25–0.5 mL) of urine samples and spiked standards were incubated with an equal volume of 17% (v/v) of 50% chloroacetaldehyde in 100 mM sodium acetate pH 4.5 at 50° C. for 4 hrs. Following centrifugation, the supernatant was analyzed by the HPLC method described in the previous section.

[3] = Pharmacokinetics and oral bioavailability in beagle dog; type: in vivo
Experimental: Following an i.v. bolus and oral administration of 8 and 40 mg/kg (prodrug equivalent dose), respectively, of Compound 4 in PEG-400 to male beagle dogs (n=4), blood samples were collected at the following times: 5, 15, 30, 45 min and 1, 2, 4, 6, 8, 12, and 24 hrs post each dosing occasion. In addition, urine was collected over the following intervals: 0–12, 12–24, 24–48, and 48–72 hrs. Intact Compound 4 and PMEA were measured in the plasma and urine samples using an LC-MS/MS method. PK parameters were determined by non-compartmental analysis.

[4] = 40 mg/kg p.o. vs 8 mg/kg i.v., dog

Nc1ncnc2c1ncn2CCOCP1(=O)OCCC(c2cccc(Cl)c2)O1 (racemic) [Compound 4]
Rats, PMEApp levels in liver organ @ 8 hr., 30 mg/kg, p.o. [1]: 6.6 nmol/g
AUC0-12h of PMEA in plasma ([2]; fasted rats): 3.5 µM·h
Fold lower plasma PMEA AUC0-12h than following bis POM PMEA ([2]; rats): 6 fold
Fold lower plasma PMEA Cmax than following bis POM PMEA ([2]; rats): 13 fold
Fold lower urinary levels of PMEA than following bis POM PMEA ([2]; rats): 5 fold
Urinary levels of PMEA ([2]; rats, urine 48 hours after treatment): 4.1 % dose
Tolerability (signs of ill health or mortality) ([3]; 8 mg/kg i.v. bolus and 40 mg/kg oral in PEG-400, male beagle dogs): well tolerated
Mean residence time (MRTiv) ([3]; 8 mg/kg i.v. bolus, dog): 1.0 h
Plasma clearance ([3]; 8 mg/kg i.v. bolus, dog): 29.5 mL/min/kg
Volume of distribution (Vss) ([3]; 8 mg/kg i.v. bolus, dog): 1.70 L/kg
Mean terminal elimination half-life t1/2 of intact prodrug, i.v. ([3]; 8 mg/kg i.v. bolus, dog plasma): 0.8 h
i.v. dose excreted in the urine as PMEA ([3]; 8 mg/kg i.v., dog): 2%
i.v. dose excreted in the urine as intact Compound 4 ([3]; 8 mg/kg i.v., dog): approximately 30%
OBAV based on dose normalized oral-to-i.v. AUC ratios [3, 4]: 112%
OBAV based on urinary excretion of Compound 4 [3, 4]: 82%
Half-life of PMEA after oral dosing of the prodrug ([3]; 40 mg/kg p.o., dog): 5.4 h
Mean peak plasma concentration (Cmax) of intact prodrug, oral ([3]; 40 mg/kg p.o., dog): 10200 ng/mL
Mean plasma Cmax of PMEA following oral administration ([3]; 40 mg/kg p.o., dog): 240 ng/mL
Terminal t1/2 after p.o. dosing ([3]; 40 mg/kg p.o., dog): 1.0 h
Tmax of PMEA following oral administration ([3]; 40 mg/kg p.o., dog): 1.4 h
Tmax of intact prodrug, oral ([3]; 40 mg/kg p.o., dog): 0.8 h and 0.81 h
p.o. dose excreted in the urine as PMEA ([3]; 40 mg/kg p.o., dog): 1.7%
p.o. dose excreted in the urine as intact prodrug ([3]; 40 mg/kg p.o., dog): 40%
Cmax ([3]; 40 mg/kg p.o., dog, read-out: Mean peak plasma concentration (Cmax) of intact prodrug, oral): ~24 µM
Cmax ([3]; 40 mg/kg p.o., dog, read-out: Mean plasma Cmax of PMEA following oral administration): ~0.88 µM
% F (orally bioavailable) ([3]; beagle dog, conclusion): ~100%
Fold reduction of systemic PMEA exposure (dose-normalized plasma AUC) versus bis POM PMEA literature ([3]; dog): 18.8 fold
PMEA AUC (dose-normalized plasma) ([3]; dog, after Compound 4): 0.58
